# Experimental data from publication PMC10660337, “Mutate and Conjugate: A Method to Enable Rapid In-Cell Target Validation” (ACS Chemical Biology, 2023).
# Values joined by “and” are separate entries in the source; they are usually repeats but may differ in a detail not shown here. Equal entries are not always repeated. Where two headings read alike, the source gives them in different places.
# What was measured:
# Format in all cases: binding
# BRD4(1)^WT [1] = target: T1, BRD4(1)^WT (Homo sapiens, UniProt O60885); experiment: Protein LCMS labeling assay 1; conditions: for Covalent labeling of purified BRD4(1)^WT detected using LCMS: after 20 h incubation; for Labeled Protein (%) WT 4 h: 50 μM compound, 10 µM protein, 37 °C, mean of three ± s.e.m., ND = not detectable
# T1 construct: Characterization of His6-BRD4(1)WT; made in house; host or cells: E. coli BL21 (DE3)
# Method: Before introducing a Cys mutant into the first bromodomain of BRD4 [BRD4(1)], we wanted to rule out the possibility that the native Cys residues C125 and C136 (Figures 2A and S1), would react with electrophilic fragments. To test this, we incubated two KAc-mimicking methylisoxazole-based reactive fragments (1 and 2, Figure 2C) with purified BRD4(1)^WT.
# (§1) The resulting library of 22 fragments was screened for BRD4(1)^L94C binding at a concentration of 50 μM using a protein LCMS assay (referred to as “labeling assay 1”). […] To assess the selectivity of the fragments for the labeling of C94, hits were also screened against BRD4(1)^WT under the same conditions. […] The acrylamide-based fragment, 12, labeled 98% of BRD4(1)^L94C after 4 h. While 95% of the protein was labeled once, 3% of the protein was labeled twice (Figure 5D). […] Fragment 14, designed by appending a β-dimethylaminomethyl acrylamide to the structure of 12, led to 74% of singly labeled BRD4(1)^L94C after 4 h with no labeling of BRD4(1)^WT observed (Table 1 and Figure 5E). […] However, only 9.9% of labeled BRD4(1)^L94C was observed, substantially lower than the 56% labeling observed for the corresponding 3-methyl regioisomer 10 (Table 1). […]
# (§2) Assays were performed in 1.5 mL Eppendorf tubes at 37 °C and gently shaken, unless otherwise stated.
# (§3) Experiments were performed in a protein LCMS assay buffer, with 10 µM protein, and 50 µM of the desired compound with a final DMSO concentration of 0.5% (Table S16). Time points were taken at 0, 1 and 4 h, unless otherwise stated, where a 20 µL sample of the reaction mix was taken, diluted with 100 µL Milli-Q water, and flash frozen. Samples were thawed immediately prior to LCMS analysis on a Waters Xevo G2-S system (Waters) fitted with a ProSwift™ RP-2H PSDVB Reversed Phase HPLC Column (Thermofisher). Data was analysed and processed using MassLynx. The total ion chromatograms (TIC) were extracted (region containing protein) and the summed scans were deconvoluted (using MaxEnt). Covalent labeling was calculated using intensities of the unlabeled and labeled protein (Equation 1). Figures were made using GraphPad Prism 7.0.
# (§4) Table S16. Buffer composition for protein LCMS.
# (§5) Buffer Reagent Composition Amount per 1 L
# (§6) Protein LCMS Assay Buffer HEPES 25 mM 6.0 g
# (§7) Protein Labelling = Intensity of Labelled Peak × 100
# BRD4(1)^L94C [2] = target: T2, BRD4(1)^L94C (Homo sapiens, UniProt O60885, L94C); experiment: Protein LCMS labeling assay 1; conditions: for Labeled Protein (%) L94C 1 h / Labeled Protein (%) L94C 4 h: 50 μM compound, 10 µM protein, 37 °C, mean of three ± s.e.m., ND = not detectable
# T2 construct: Characterization of His6-BRD4(1)L94C; made in house; host or cells: E. coli BL21 (DE3)
# Method: as §1, §2, §3, §4, §5, §6, §7
# BRD4(1)^WT [3] = target: T1, BRD4(1)^WT; experiment: AlphaScreen H4_1–20(KAc)4 peptide displacement
# Method: (§8) Dose response AlphaScreen™
# (§9) The peptide (Table S17) was supplied at >95% purity by GenScript and was stored as 1 mM stocks in […]
# (§10) Table S17. Amino acid sequences of peptides used in AlphaScreen™.
# (§11) Peptide Amino Acid Sequence […]
# (§12) The assay buffer (Table S18, pH 7.6) was filtered through a 0.22 μm filter before use. The buffer is stored at 4 °C as a 5× solution without bovine serum albumin (BSA), which was added on the day of use. The compounds, proteins, and peptides were dispensed into a ProxiPlate-384 Plus (Perkin Elmer) using a Thermo-Fisher electronic multi-channel pipette. For the incubation steps, the plates were sealed, shaken for 10 seconds at 600 rpm on a plate oscillator, and incubated at room temperature in darkness for 30 min or 3.5 h. Ni2+ chelate acceptor and streptavidin donor beads were prepared as a mixture in a 1:300 dilution (0.007 mg/mL final assay concentration, added to the plates and incubated for a further 30 min at room temperature. Plates were read using a SynergyTM 2 MultiMode Microplate Reader using the inbuilt AlphaScreen™ 384 ProxiPlate function: excitation 680 nm, 0.18 sec; emission […]
# (§13) Table S18. Composition of assay buffer used in AlphaScreen™ experiments, adjusted to pH 7.6 using an aqueous NaOH […]
# (§14) Reagent Composition Mass (mg) for 50 mL
# (§15) 50 mM DMSO stock solutions of the compounds were serially diluted, and dispensed into wells (5 μL).
# (§16) The protein-peptide mixes (7 μL) for each combination were prepared following the specified final assay concentration (Table S19), and dispensed into wells. Assay beads (8 μL) were added to attain a final assay volume of 20 μL. Dose response curves were obtained for each compound in triplicate, with serial 1:2 dilutions. Data was processed by fitting a four-parameter equation (Equation 2) to calculate IC50 values using Prism software.
# (§17) Table S19. Final assay concentrations of each peptide-protein combination.
# (§18) Protein Peptide Protein FAC (nM) Peptide FAC (nM)
# (§19) Response = Bottom + Top − Bottom
# BRD4(1)^L94C [4] = target: T2, BRD4(1)^L94C; experiment: AlphaScreen H4_1–20(KAc)4 peptide displacement
# Method: Under these conditions, all three fragments displaced the peptide from BRD4(1)^L94C, which is consistent with the fragments binding to BRD4(1)^L94C in the expected location (Table 2). […] The longer the mutant protein and electrophile are incubated together, the more time there is for a covalent interaction to occur. […]
# as §8, §9, §10, §11, §12, §13, §14, §15, §16, §17, §18, §19
# BRD4(1)^L94C [5] = target: T2, BRD4(1)^L94C; experiment: Fluorescent labeling of purified protein (CuAAC with TAMRA-PEG3-azide, in-gel fluorescence); conditions: 50 μM probe, 10 μM protein, 4 h, 37 °C, then CuAAC 1 h
# Method: When 28, 29, 30, and 42 were incubated with either purified BRD4(1)^L94C or BRD4(1)^WT and subjected to a copper(I)-catalyzed alkyne–azide click reaction (CuAAC) reaction with the fluorescent TAMRA-PEG3-azide dye, all clickable probes labeled the mutant protein and could be visualized using fluorescence imaging of a gel (Figure 6).
# Figure 6 Clickable probes 28, 29, 30, and 42 covalently label BRD4(1)^L94C and undergo a subsequent CuAAC reaction with TAMRA-PEG3 azide to fluorescently label the protein, as shown by in-gel fluorescence imaging. Compounds 28, 29, 30, 41, and 42 (50 μM) were incubated with purified BRD4(1)^L94C or BRD4(1)^WT (10 μM) for 4 h at 37 °C, followed by CuAAC reaction with TAMRA-PEG3 azide for 1 h and separation of components by SDS-PAGE. For all compounds other than 30, only labeling of BRD4(1)^L94C was observed. […]
# Fluorescent labeling of purified proteins
# Assays were performed in 1.5 mL Eppendorf tubes at 37 °C, and gently shaken, unless otherwise stated.
# The desired click probe (50 µM) was incubated with protein (10 µM) in protein LCMS buffer for 4 h, after which TAMRA-PEG3-Azide (200 µM), TCEP·HCl (1 mM), TBTA (100 µM), and CuSO4 (1 mM) were added and incubated for a further 1 h at room temperature in the dark. A 25 µL sample of the […]
# reaction mix was taken and 8 µL of Lamelli buffer added, and the samples denatured by heating at 95 °C for 10 min. Samples were separated by gel electrophoresis on NuPAGE™ 4–12%, Bis-Tris precast polyacrylamide gels (Thermofisher). Following electrophoresis, gels were stained for 15 min with InstantBlueTM Coomasie® stain (Abcam), destained, and imaged using Bio-rad molecular imager.
# Bio-rad Image Lab 6.1 was used to process the data. […]
# InstantBlueTM Coomasie® stain (Abcam), destained, and imaged using Bio-rad molecular imager. […]
# MEM media. Cells were then harvested and lysed using the previously described protocol above. […]
# [6] = 4 h incubation at RT, mean of three ± s.e.m.
# [7] = IC50 (μM) L94C 1 h, 1 h incubation at RT, mean of three ± s.e.m.
# [8] = IC50 (μM) L94C 4 h, 4 h incubation at RT, mean of three ± s.e.m.
SMILES,Labeled Protein (%) WT 4 h (BRD4(1)^WT [1]),Labeled Protein (%) L94C 1 h (BRD4(1)^L94C [2]) [%],Labeled Protein (%) L94C 4 h (BRD4(1)^L94C [2]; 4 h),other results
Cc1cc(CCl)on1 [Compound 1],–,–,–,Covalent labeling of purified BRD4(1)^WT detected using LCMS (BRD4(1)^WT [1]): no covalent labeling
Cc1cc(CCl)no1 [Compound 2],–,–,–,Covalent labeling of purified BRD4(1)^WT detected using LCMS (BRD4(1)^WT [1]): no covalent labeling
C=CC(=O)c1cc(C)no1 [Compound 4],83 ± 1.2%,100 ± 0.0,100 ± 0.0%,–
C=CC(=O)c1cc(C)on1 [Compound 5],86 ± 7.4%,100.0 ± 0.0,100.0 ± 0.0%,–
C=CC(=O)c1onc(C)c1-c1ccccc1 [Compound 6],–,100 ± 0.0,100 ± 0.0%,–
C#CC(=O)c1cc(C)no1 [Compound 8],29 ± 0.8%,44 ± 0.6,42 ± 1.4%,–
C#CC(=O)c1cc(C)on1 [Compound 9],22 ± 1.4%,60 ± 0.7,58 ± 1.9%,–
C=CC(=O)Nc1cc(C)no1 [Compound 10],–,21 ± 1.8,56% and 56 ± 0.9%,–
C=CC(=O)Nc1cc(C)on1 [Compound 11],–,7.6 ± 0.4,9.9% and 9.9 ± 0.4%,–
C=CC(=O)Nc1onc(C)c1-c1ccccc1 [Compound 12],3% and 3.0 ± 0.2%,70 ± 0.6,98% and 98 ± 0.2%,"IC50 (BRD4(1)^WT [3]; [6]): > 100 µM; IC50 (BRD4(1)^L94C [4]; [7]): 5.83 µM and 5.8 µM; IC50 (BRD4(1)^L94C [4]; [8]): 1.27 µM and 1.3 µM; BRD4(1)^L94C protein labeled once (BRD4(1)^L94C [2]; 50 μM, 4 h): 95%; BRD4(1)^L94C protein labeled twice (BRD4(1)^L94C [2]; 50 μM, 4 h): 3%"
Cc1cc(NC(=O)/C=C/CN(C)C)on1 [Compound 13],–,16 ± 0.7,52% and 52 ± 0.9%,–
Cc1noc(NC(=O)/C=C/CN(C)C)c1-c1ccccc1 [Compound 14],no labeling,27 ± 2.2,74% and 74 ± 2.6%,IC50 (BRD4(1)^WT [3]; [6]): > 100 µM; IC50 (BRD4(1)^L94C [4]; [7]): 8.69 µM and 8.7 µM; IC50 (BRD4(1)^L94C [4]; [8]): 4.45 µM and 4.4 µM
C#CC(=O)Nc1cc(C)no1 [Compound 19],–,3.4 ± 0.2,15 ± 1.3%,–
CC#CC(=O)Nc1cc(C)no1 [Compound 20],–,–,7.8 ± 0.2%,–
Cc1cc(NC(=O)CCl)on1 [Compound 21],–,10 ± 0.7,32 ± 0.9%,–
Cc1noc(NC(=O)CCl)c1-c1ccccc1 [Compound 22],–,5.9 ± 0.3,22 ± 0.4%,–
C#Cc1ccc(-c2c(C)noc2NC(=O)/C=C/CN(C)C)cc1 [Compound 28],–,59 ± 1.9,–,"Labeling of purified BRD4(1)^L94C, in-gel fluorescence (BRD4(1)^L94C [5]): high levels"
C#CCOc1ccc(-c2c(C)noc2NC(=O)/C=C/CN(C)C)cc1 [Compound 29],–,49 ± 2.0,–,"Labeling of purified BRD4(1)^L94C, in-gel fluorescence (BRD4(1)^L94C [5]): high levels"
"Cc1noc(C)c1-c1cc(O)cc(C(O)c2cccnc2)c1 (centres unmarked) [OXFBD04 (3), reference compound]",–,–,–,"IC50 (BRD4(1)^WT [3]; equals the 4 h value of Figure S14): 0.183 ± 0.025 µM; IC50 (BRD4(1)^L94C [4]; IC50, prevention of H4_1–20(KAc)4 peptide binding to BRD4(1)^L94C, equals the 4 h value of Figure S13): 0.08 ± 0.009 µM; IC50 (BRD4(1)^L94C [4]; read-out: IC50 (μM) L94C 1 h, 1 h incubation at RT, mean of three ± s.e.m.): 0.059 ± 0.11 µM"
